Our source for the T/C values is PubChem BioAssay AID330 (DTP/NCI, 2004).

The test system of this assay is P388 leukemia ip, CD2F1 mice, survival T/C. Briefly: NCI In Vivo Anticancer Drug Screen. Data for tumor model P388 Leukemia (intraperitoneal) in CD2F1 (CDF1) mice. As to conditions: endpoint: median survival time, higher = longer survival. The procedure, abridged: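 Mice carrying the transplanted tumor received test compound or vehicle. Survival was recorded in each group, and the value is the treated-group measurement divided by that of the vehicle-treated control group.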

Setting [1] is: dose: 50.0 mg/kg/injection, schedule: Q01DX005 (ip), vehicle: saline with Tween-80.
Setting [2] is: dose: 100.0 mg/kg/injection, schedule: Q01DX005 (ip), vehicle: saline with Tween-80.
[3] abbreviates: dose: 200.0 mg/kg/injection, schedule: Q01DX005 (ip), vehicle: saline with Tween-80.
Setting [4] is: dose: 60.0 mg/kg/injection, schedule: Q01DX005 (ip), vehicle: Klucel (hydroxypropylcellulose) (HPC).
Setting [5] is: dose: 120.0 mg/kg/injection, schedule: Q01DX005 (ip), vehicle: Klucel (hydroxypropylcellulose) (HPC).
[6] abbreviates: dose: 240.0 mg/kg/injection, schedule: Q01DX005 (ip), vehicle: Klucel (hydroxypropylcellulose) (HPC).
Where [7] appears, read: dose: 50.0 mg/kg/injection, schedule: Q01DX005 (ip), vehicle: Klucel (hydroxypropylcellulose) (HPC).
[8] abbreviates: dose: 100.0 mg/kg/injection, schedule: Q01DX005 (ip), vehicle: Klucel (hydroxypropylcellulose) (HPC).
Setting [9] is: dose: 25.0 mg/kg/injection, schedule: Q01DX009 (ip), vehicle: Klucel (hydroxypropylcellulose) (HPC).
[10] abbreviates: dose: 50.0 mg/kg/injection, schedule: Q01DX009 (ip), vehicle: Klucel (hydroxypropylcellulose) (HPC).
[11] abbreviates: dose: 100.0 mg/kg/injection, schedule: Q01DX009 (ip), vehicle: Klucel (hydroxypropylcellulose) (HPC).
[12] abbreviates: dose: 50.0 mg/kg/injection, schedule: Q01DX009 (ip), vehicle: saline with Tween-80.
[13] abbreviates: dose: 100.0 mg/kg/injection, schedule: Q01DX009 (ip), vehicle: saline with Tween-80.
Where [14] appears, read: dose: 200.0 mg/kg/injection, schedule: Q01DX009 (ip), vehicle: saline with Tween-80.

“And” between values parts separate entries of the source, which are not always exact repeats. Equal entries are not always repeated. Toxic doses and inconclusive results are not listed.

On to `O=C1CN(c2cccc(C(F)(F)F)c2)C(=O)CN1/N=C/c1cccnc1`, for which the T/C under setting [1] is 94 % of control, the T/C under setting [2] was 97 % of control and the T/C under setting [3] was 94 % of control.
With `O=C(NC1(C(=O)O)CC1c1ccccc1)c1ccccc1` (stereo unspecified), the T/C under setting [4] was 100 % of control, the T/C under setting [5] was 94 % of control and the T/C under setting [6] is 100 % of control.
Regarding `Cc1ccc2ccccc2c1NS(=O)(=O)c1ccccc1`, the T/C is 95 % of control (dose: 100.0 mg/kg/injection, schedule: Q01DX001 (ip), vehicle: saline with Tween-80); 95 % of control (dose: 200.0 mg/kg/injection, schedule: Q01DX001 (ip), vehicle: saline with Tween-80); 91 % of control (dose: 400.0 mg/kg/injection, schedule: Q01DX001 (ip), vehicle: saline with Tween-80).
For `CCCCCN(CCCCC)CCC(O)c1cccc2ccccc12` (stereo unspecified), the T/C is, setting by setting: (dose: 12.5 mg/kg/injection, schedule: Q01DX005 (ip), vehicle: saline with Tween-80) 100 % of control; (dose: 25.0 mg/kg/injection, schedule: Q01DX005 (ip), vehicle: saline with Tween-80) 105 % of control; under setting [1], 103 % of control and 113 % of control.
For the molecule `Oc1ccc2ccccc2c1C(c1ccc(Cl)cc1)c1c(O)ccc2ccccc12`, the T/C runs as follows: under setting [1], 100 % of control; under setting [2], 101 % of control; under setting [3], 107 % of control.
Take `CCN(CC)CC(O)c1cc(-c2ccccc2)nc2ccc(OC)cc12` (stereo unspecified): the T/C is 100 % of control under setting [7] and 92 % of control under setting [8].
In the case of `Clc1nc2nc(C3CC3)[nH]c2nc1Cl`, the T/C runs as follows: (dose: 100.0 mg/kg/injection, schedule: Q04DX003 (ip), vehicle: saline with Tween-80) 100 % of control; (dose: 200.0 mg/kg/injection, schedule: Q04DX003 (ip), vehicle: saline with Tween-80) 100 % of control; (dose: 400.0 mg/kg/injection, schedule: Q04DX003 (ip), vehicle: saline with Tween-80) 100 % of control.
For the molecule `O=C1Nc2ccccc2/C1=C\c1ccccc1O`, the T/C was 98 % of control under setting [9]; 96 % of control under setting [10]; 95 % of control under setting [11]; 98 % of control (dose: 200.0 mg/kg/injection, schedule: Q01DX009 (ip), vehicle: Klucel (hydroxypropylcellulose) (HPC)); 88 % of control (dose: 400.0 mg/kg/injection, schedule: Q01DX009 (ip), vehicle: Klucel (hydroxypropylcellulose) (HPC)).
For `CC(=O)/C=C(\c1ccccc1)c1c(O)c2ccccc2oc1=O`, the T/C runs as follows: under setting [12], 89 % of control; under setting [13], 99 % of control; under setting [14], 114 % of control.
For the molecule `Cc1ccc(S(=O)(=O)/N=C2\C=CC=C\C2=C2\Sc3ccccc3N2C)cc1`, the T/C was 102 % of control (dose: 100.0 mg/kg/injection, schedule: Q04DX003 (ip), vehicle: saline); 99 % of control (dose: 200.0 mg/kg/injection, schedule: Q04DX003 (ip), vehicle: saline); 95 % of control (dose: 400.0 mg/kg/injection, schedule: Q04DX003 (ip), vehicle: saline).
For the molecule `COC1(OC)C(c2ccc([N+](=O)[O-])cc2)C(C#N)(C#N)C1(OC)OC` (stereo unspecified), the T/C was 100 % of control under setting [4], 97 % of control under setting [5] and 99 % of control under setting [6].
In the case of `COc1ccc(Sc2ccccn2)cc1OC`, the T/C was 101 % of control under setting [1], 106 % of control under setting [2] and 114 % of control under setting [3].
For the molecule `CC(C)=CCc1c2ccoc2c(O)c2oc(=O)ccc12`, the T/C is 106 % of control (dose: 25.0 mg/kg/injection, schedule: Q01DX009 (ip), vehicle: saline with Tween-80); 105 % of control under setting [12]; 105 % of control under setting [13].
With `C(=N\Nc1nc2ccccc2s1)/c1ccc(/C=N/Nc2nc3ccccc3s2)cc1`, the T/C is, setting by setting: under setting [12], 105 % of control; under setting [13], 105 % of control; under setting [14], 102 % of control.
As for `ClC1=C(Cl)N(C2=NCCC2)CC1`, the T/C was 96 % of control (dose: 6.25 mg/kg/injection, schedule: Q01DX009 (ip), vehicle: Klucel (hydroxypropylcellulose) (HPC)); 99 % of control (dose: 12.5 mg/kg/injection, schedule: Q01DX009 (ip), vehicle: Klucel (hydroxypropylcellulose) (HPC)); 99 % of control under setting [9].
`CC1=C(C)NC(C)=C(C)N1`: the T/C was 97 % of control (dose: 50.0 mg/kg/injection, schedule: Q01DX009 (ip), vehicle: saline); 95 % of control (dose: 100.0 mg/kg/injection, schedule: Q01DX009 (ip), vehicle: saline); 97 % of control (dose: 200.0 mg/kg/injection, schedule: Q01DX009 (ip), vehicle: saline).
`COc1ccc2[nH]c(=O)c(COC(C)=O)c(COC(C)=O)c2c1`: the T/C is, setting by setting: under setting [7], 87 % of control; under setting [8], 87 % of control; (dose: 200.0 mg/kg/injection, schedule: Q01DX005 (ip), vehicle: Klucel (hydroxypropylcellulose) (HPC)) 97 % of control.
Regarding `CC(O)CNCCNc1ccc(NCCNCC(C)O)c2c1C(=O)c1c(O)ccc(O)c1C2=O` (stereo unspecified), the T/C reads like this: (dose: 0.5 mg/kg/injection, schedule: Q01DX009 (ip), vehicle: acid diluted with saline) 165 % of control; (dose: 1.0 mg/kg/injection, schedule: Q01DX009 (ip), vehicle: acid diluted with saline) 150 % of control; (dose: 2.0 mg/kg/injection, schedule: Q01DX009 (ip), vehicle: acid diluted with saline) 200 % of control; (dose: 4.0 mg/kg/injection, schedule: Q01DX009 (ip), vehicle: acid diluted with saline) 234 % of control; (dose: 8.0 mg/kg/injection, schedule: Q01DX009 (ip), vehicle: acid diluted with saline) 202 % of control.
Regarding `Nc1nc(N)c2nc(CNc3ccc(C(=O)NC(CCC(=O)O)C(=O)O)cc3F)cnc2n1` (stereo unspecified), the T/C by setting is: (dose: 1.87 mg/kg/injection, schedule: Q01DX005 (ip), vehicle: saline with Tween-80) 163 % of control; (dose: 7.5 mg/kg/injection, schedule: Q01DX005 (ip), vehicle: saline with Tween-80) 183 % of control.
As to `CCCC(=O)N[C@H]1CCc2cc(OC)c(OC)c(OC)c2-c2ccc(SC)c(=O)cc21`, the T/C is, setting by setting: (dose: 0.38 mg/kg/injection, schedule: Q01DX009 (ip), vehicle: distilled water + Tween-80) 156 % of control; (dose: 0.75 mg/kg/injection, schedule: Q01DX009 (ip), vehicle: distilled water + Tween-80) 160 % of control; (dose: 0.75 mg/kg/injection, schedule: Q01DX009 (ip), vehicle: water) 182 % of control; (dose: 1.5 mg/kg/injection, schedule: Q01DX009 (ip), vehicle: water) 231 % of control.
As for `CC(=O)Oc1ccc(OC(C)=O)c2c(OC(C)=O)c(C3CCC(C)(C)O3)cc(OC(C)=O)c12` (stereo unspecified), the T/C runs as follows: (dose: 12.5 mg/kg/injection, schedule: Q04DX002 (ip), vehicle: saline with Tween-80) 106 % of control; (dose: 25.0 mg/kg/injection, schedule: Q04DX002 (ip), vehicle: saline with Tween-80) 118 % of control.
For `COC(=O)/C=C/CS(C)(=O)=O`, the T/C under setting [1] was 105 % of control, the T/C under setting [2] is 101 % of control and the T/C under setting [3] was 99 % of control.
Regarding `CCn1c(=O)c2c(nc(Cl)n2C2OC(COC(C)=O)C(OC(C)=O)C(OC(C)=O)C2OC(C)=O)n(CC)c1=O` (stereo unspecified), the T/C runs as follows: under setting [9], 100 % of control; under setting [10], 99 % of control; under setting [11], 99 % of control.
